How the values were obtained:
Experiment in all cases: relative viability (nuclei count vs DMSO), 5 days (fraction); higher = more cells survive
NCI-H3122 = test system: NCI-H3122
Procedure, shortened: (§1)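 Cells from lung cancer lines were seeded into 1536-well plates and, one day later, dosed by pin tool. Treatments were either a single drug or a fixed dose of an anchor drug with five library-drug doses (not always all listed) in √10 steps. After 5 days, nuclei were stained in a one-step fixation (final 0.05% Triton X-100, 1% formaldehyde, 1 ug/ml Hoechst) and counted on 4× images, and relative viability is the treated-to-vehicle nuclei ratio, as the median of duplicate plates.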

NCI-H2085 = test system: NCI-H2085
Procedure, shortened: as §1

HCC-44 = test system: HCC-44
Procedure, shortened: as §1

HCC-366 = test system: HCC-366
Procedure, shortened: as §1

PC-14 = test system: PC-14
Procedure, shortened: as §1

NCI-H1734 = test system: NCI-H1734
Procedure, shortened: as §1

ABC-1 = test system: ABC-1
Procedure, shortened: as §1

ChaGo-K-1 = test system: ChaGo-K-1
Procedure, shortened: as §1

EPLC-272H = test system: EPLC-272H
Procedure, shortened: as §1

NCI-H1944 = test system: NCI-H1944
Procedure, shortened: as §1

HCC-827 = test system: HCC-827
Procedure, shortened: as §1

NCI-H1793 = test system: NCI-H1793
Procedure, shortened: as §1

LCLC-103H = test system: LCLC-103H
Procedure, shortened: as §1

HCC-15 = test system: HCC-15
Procedure, shortened: as §1

NCI-H2347 = test system: NCI-H2347
Procedure, shortened: as §1

NCI-H1355 = test system: NCI-H1355
Procedure, shortened: as §1

NCI-H2405 = test system: NCI-H2405
Procedure, shortened: as §1

## Cc1cn(-c2cc(NC(=O)c3ccc(C)c(Nc4nccc(-c5cccnc5)n4)c3)cc(C(F)(F)F)c2)cn1 [Nilotinib] + NC(=O)Nc1cc(-c2cccc(F)c2)sc1C(=O)N[C@H]1CCCNC1 [AZD7762] (partner 0.2 µM)
NCI-H3122; first compound 0.001 µM
  relative viability: 0.965
NCI-H3122; first compound 0.003162 µM
  relative viability: 1.24
NCI-H3122; first compound 0.01 µM
  relative viability: 1.37
NCI-H3122; first compound 0.03162 µM
  relative viability: 0.967
NCI-H3122; first compound 0.1 µM
  relative viability: 0.382
NCI-H2085; first compound 0.001 µM
  relative viability: 0.978
NCI-H2085; first compound 0.003162 µM
  relative viability: 0.942
NCI-H2085; first compound 0.01 µM
  relative viability: 1.03
NCI-H2085; first compound 0.03162 µM
  relative viability: 0.793
NCI-H2085; first compound 0.1 µM
  relative viability: 0.527
HCC-44; first compound 0.001 µM
  relative viability: 0.969
HCC-44; first compound 0.003162 µM
  relative viability: 1
HCC-44; first compound 0.01 µM
  relative viability: 0.996
HCC-44; first compound 0.1 µM
  relative viability: 0.923
HCC-366; first compound 0.001 µM
  relative viability: 0.18
HCC-366; first compound 0.003162 µM
  relative viability: 0.231
HCC-366; first compound 0.01 µM
  relative viability: 0.264
HCC-366; first compound 0.03162 µM
  relative viability: 0.204
HCC-366; first compound 0.1 µM
  relative viability: 0.115
PC-14; first compound 0.001 µM
  relative viability: 0.359
PC-14; first compound 0.003162 µM
  relative viability: 0.285
PC-14; first compound 0.01 µM
  relative viability: 0.399
PC-14; first compound 0.03162 µM
  relative viability: 0.305
NCI-H1734; first compound 0.001 µM
  relative viability: 0.498
NCI-H1734; first compound 0.003162 µM
  relative viability: 0.617
NCI-H1734; first compound 0.01 µM
  relative viability: 0.558
NCI-H1734; first compound 0.03162 µM
  relative viability: 0.387
NCI-H1734; first compound 0.1 µM
  relative viability: 0.219
ABC-1; first compound 0.001 µM
  relative viability: 0.667
ABC-1; first compound 0.003162 µM
  relative viability: 0.73
ABC-1; first compound 0.01 µM
  relative viability: 0.803
ABC-1; first compound 0.03162 µM
  relative viability: 0.787
ABC-1; first compound 0.1 µM
  relative viability: 0.387
ChaGo-K-1; first compound 0.001 µM
  relative viability: 0.884
ChaGo-K-1; first compound 0.003162 µM
  relative viability: 0.975
ChaGo-K-1; first compound 0.01 µM
  relative viability: 0.853
ChaGo-K-1; first compound 0.03162 µM
  relative viability: 0.638
ChaGo-K-1; first compound 0.1 µM
  relative viability: 0.344
EPLC-272H; first compound 0.001 µM
  relative viability: 0.267
EPLC-272H; first compound 0.003162 µM
  relative viability: 0.13
EPLC-272H; first compound 0.01 µM
  relative viability: 0.164
EPLC-272H; first compound 0.03162 µM
  relative viability: 0.186
EPLC-272H; first compound 0.1 µM
  relative viability: 0.198
NCI-H1944; first compound 0.001 µM
  relative viability: 0.436
NCI-H1944; first compound 0.003162 µM
  relative viability: 0.75
NCI-H1944; first compound 0.01 µM
  relative viability: 0.41
NCI-H1944; first compound 0.03162 µM
  relative viability: 0.285
NCI-H1944; first compound 0.1 µM
  relative viability: 0.299
HCC-827; first compound 0.001 µM
  relative viability: 0.172
HCC-827; first compound 0.003162 µM
  relative viability: 0.158
HCC-827; first compound 0.03162 µM
  relative viability: 0.177
HCC-827; first compound 0.1 µM
  relative viability: 0.204
NCI-H1793; first compound 0.001 µM
  relative viability: 0.388
NCI-H1793; first compound 0.003162 µM
  relative viability: 0.318
NCI-H1793; first compound 0.01 µM
  relative viability: 0.303
NCI-H1793; first compound 0.03162 µM
  relative viability: 0.243
NCI-H1793; first compound 0.1 µM
  relative viability: 0.146
LCLC-103H; first compound 0.001 µM
  relative viability: 0.861
LCLC-103H; first compound 0.003162 µM
  relative viability: 0.883
LCLC-103H; first compound 0.01 µM
  relative viability: 0.845
LCLC-103H; first compound 0.03162 µM
  relative viability: 0.705
LCLC-103H; first compound 0.1 µM
  relative viability: 0.477
HCC-15; first compound 0.001 µM
  relative viability: 1.1
HCC-15; first compound 0.003162 µM
  relative viability: 1.28
HCC-15; first compound 0.01 µM
  relative viability: 1.39
HCC-15; first compound 0.03162 µM
  relative viability: 1.25
HCC-15; first compound 0.1 µM
  relative viability: 1.19
NCI-H2347; first compound 0.001 µM
  relative viability: 0.691
NCI-H2347; first compound 0.003162 µM
  relative viability: 0.597
NCI-H2347; first compound 0.01 µM
  relative viability: 0.748
NCI-H2347; first compound 0.03162 µM
  relative viability: 0.567
NCI-H2347; first compound 0.1 µM
  relative viability: 0.596
NCI-H1355; first compound 0.001 µM
  relative viability: 0.718
NCI-H1355; first compound 0.003162 µM
  relative viability: 0.782
NCI-H1355; first compound 0.01 µM
  relative viability: 0.801
NCI-H1355; first compound 0.03162 µM
  relative viability: 0.439
NCI-H1355; first compound 0.1 µM
  relative viability: 0.583
NCI-H2405; first compound 0.001 µM
  relative viability: 0.684
NCI-H2405; first compound 0.003162 µM
  relative viability: 0.628
NCI-H2405; first compound 0.01 µM
  relative viability: 0.665
NCI-H2405; first compound 0.03162 µM
  relative viability: 0.557
NCI-H2405; first compound 0.1 µM
  relative viability: 0.399
